Key:
[1] = human, serum, 4383 h
[2] = human
[3] = human; remark: listed apart in the source
[4] = Times to onset, minimal and maximal, observed in the indexed observations. [column 'DELAI' in source]; details: human
[5] = human; remark: listed apart in the source
[6] = human; remark: listed apart in the source
[7] = human, serum
[8] = human; remark: listed apart in the source
[9] = human; remark: listed apart in the source
[10] = human; remark: listed apart in the source
[11] = human; remark: listed apart in the source
[12] = Highest frequency of moderate liver toxicity observed during clinical trials, expressed as a percentage. [column '% BIOL' in source]; details: human
[13] = human; remark: listed apart in the source
[14] = Highest frequency of acute liver toxicity observed during clinical trials, expressed as a percentage. [column '% AIGUE' in source]; details: human
[15] = human, serum; remark: listed apart in the source
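Wherever Hepatotoxicity (association with vascular disease) is given: count of indexed literature references reporting vascular liver injury in humans, e.g. peliosis hepatitis, hepatic veno-occlusive disease or Budd-Chiari syndrome.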
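Wherever Hepatotoxicity (benign tumour) is given: value is a count of indexed literature references citing a benign tumour confirmed by histopathology.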
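Wherever Hepatotoxicity (choleostasis) is given: human cholestatic liver injury, shown by histopathology or by peak ALT or AST elevation over alkaline phosphatase ratio below 2, value counts indexed literature reports.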
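Wherever Hepatotoxicity (chronic liver disease) is given: chronic liver injury confirmed by histopathology or persistently raised serum aminotransferase activity beyond 6 months, value given as the count of indexed literature references.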
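Wherever Hepatotoxicity (cirrhosis) is given: value is a count of indexed literature references reporting cirrhosis confirmed by histopathology.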
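Wherever Hepatotoxicity (cytolytic) is given: human cytolytic liver injury, shown by histopathology or by a ratio above 5 of peak ALT or AST elevation to alkaline phosphatase elevation, value counts indexed references.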
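Wherever Hepatotoxicity (granulomatous hepatitis) is given: value is a count of indexed literature references reporting granulomatous liver disease confirmed by histopathology.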
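Wherever Hepatotoxicity (malignant tumour) is given: malignant tumour confirmed by histopathology, value gives the count of indexed literature references reporting it.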
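Wherever Hepatotoxicity (severe hepatitis) is given: human clinical data: severe hepatitis, meaning potentially life-threatening liver failure or clinically observed cases, the value counts how many indexed literature references report it.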
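Wherever Hepatotoxicity (steatosis) is given: steatosis confirmed by histopathology, value is the count of indexed references.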

Structure (SMILES) | Hepatotoxicity (chronic liver disease) [1] | Hepatotoxicity (granulomatous hepatitis) [2] | Hepatotoxicity (benign tumour) [3] | Hepatotoxicity (time to onset) [4] | Hepatotoxicity (malignant tumour) [5] | Hepatotoxicity (steatosis) [6] | Hepatotoxicity (acute) [7] | Hepatotoxicity (choleostasis) [8] | Hepatotoxicity (cirrhosis) [9] | Hepatotoxicity (severe hepatitis) [10] | Hepatotoxicity (association with vascular disease) [11] | Hepatotoxicity (moderate) [12] | Hepatotoxicity (cytolytic) [13] | Hepatotoxicity (acute) [14] | Hepatotoxicity (moderate) [15] | other results
[H]/N=C(\N/C(=N/[H])Nc1ccc(Cl)cc1)NC(C)C [PROGUANIL] | 0 | 0 | 0 | 6 weeks | 0 | 0 | 1 | 0 | 0 | 0 | 0 | 16% | 1 | 0% | 1 | –
CCC(=O)[C@@]1(C)CC[C@H]2[C@@H]3CCC4=CC(=O)CCC4=C3CC[C@@]21C [PROMEGESTONE] | 0 | 0 | 1 | 3 years | 0 | 0 | 0 | 0 | 0 | 0 | 0 | 0% | 0 | 0% | 0 | –
CC(C)c1cccc(C(C)C)c1O [PROPOFOL] | 0 | – | 0 | 1 day - 4 weeks | 0 | 0 | 2 | – | 0 | – | 0 | – | – | – | 0 | Hepatotoxicity (granulomatous hepatitis) ([2]; Liver): 0; Hepatotoxicity (choleostasis) ([8]; Liver): 1; Hepatotoxicity (severe hepatitis) ([10]; Liver): 0; Hepatotoxicity (moderate) ([12]; Liver): 0%; Hepatotoxicity (cytolytic) ([13]; Liver): 1; Hepatotoxicity (acute) ([14]; Liver): 0%
Cc1c(C(C)C)c(=O)n(-c2ccccc2)n1C [PROPYPHENAZONE] | 0 | 2 | 0 | 2 days - 2 years | 0 | 0 | 3 | 0 | 0 | 0 | 0 | 0% | 1 | 0% | 0 | –
Fc1ccccc1C1=NCC(=S)N(CC(F)(F)F)c2ccc(Cl)cc21 [QUAZEPAM] | 0 | 0 | 0 | 4 weeks | 0 | 0 | 0 | 0 | 0 | 0 | 0 | 0% | 0 | 0% | 1 | –
OCCOCCN1CCN(C2=Nc3ccccc3Sc3ccccc32)CC1 [QUETIAPINE] | 0 | – | 0 | 1 week - 3 weeks | 0 | 0 | 1 | – | 0 | – | 0 | – | – | – | 3 | Hepatotoxicity (granulomatous hepatitis) ([2]; Liver): 0; Hepatotoxicity (choleostasis) ([8]; Liver): 0; Hepatotoxicity (severe hepatitis) ([10]; Liver): 0; Hepatotoxicity (moderate) ([12]; Liver): 14.8%; Hepatotoxicity (cytolytic) ([13]; Liver): 1; Hepatotoxicity (acute) ([14]; Liver): 1.9%
COCCCOc1ccnc(C[S+]([O-])c2nc3ccccc3[nH]2)c1C (stereo not given) [RABEPRAZOLE] | 0 | 0 | 0 | 4 weeks | 0 | 0 | 1 | 0 | 0 | 1 | 0 | 0% | 1 | 0% | 0 | –
CCN1CCC[C@H]1CNC(=O)c1c(O)c(Cl)cc(Cl)c1OC [RACLOPRIDE] | 0 | 0 | 0 | 1 week - 2 weeks | 0 | 0 | 0 | 0 | 0 | 0 | 0 | 2.2% | 0 | 0% | 1 | –
CC(=O)OCC(=O)NCCCOc1cccc(CN2CCCCC2)c1 [ROXATIDINE ACETATE] | 0 | 0 | 0 | 4 weeks | 0 | 0 | 1 | 0 | 0 | 0 | 0 | 0.4% | 0 | 0.5% | 2 | –
CC[C@H]1OC(=O)[C@H](C)[C@@H](O[C@H]2C[C@@](C)(OC)[C@@H](O)[C@H](C)O2)[C@H](C)[C@@H](O[C@@H]2O[C@H](C)C[C@H](N(C)C)[C@H]2O)[C@](C)(O)C[C@@H](C)/C(=N\OCOCCOC)[C@H](C)[C@@H](O)[C@]1(C)O [ROXITHROMYCIN] | 0 | 0 | 0 | 4 days - 10 months | 0 | 0 | 10 | 6 | 0 | 2 | 0 | 22.6% | 7 | 0% | 38 | –
O=C(Oc1ccccc1C(=O)O)c1ccccc1O [SALSALATE] | 0 | 0 | 0 | 1 day - 2 weeks | 0 | 0 | 2 | 0 | 0 | 0 | 0 | 15% | 2 | 5% | 1 | –
FCOC(C(F)(F)F)C(F)(F)F [SEVOFLURANE] | 0 | 0 | 0 | 1 day - 11 days | 0 | 0 | 6 | 0 | 0 | 2 | 0 | 40% | 6 | 0% | 4 | –
CC(C)NCC(O)c1ccc(NS(C)(=O)=O)cc1 (stereo not given) [SOTALOL] | 1 | 0 | 0 | 10 months | 0 | 0 | 1 | 0 | 0 | 0 | 0 | 0% | 1 | 0% | 0 | –
CN[C@@H]1[C@H](O)[C@H](NC)[C@H]2O[C@@]3(O)C(=O)C[C@@H](C)O[C@H]3O[C@@H]2[C@H]1O [SPECTINOMYCIN] | 0 | 0 | 0 | 3 days | 0 | 0 | 1 | 1 | 0 | 0 | 0 | 0% | 0 | 0% | 1 | –

— ChEMBL document CHEMBL3137667, “[Drug-induced liver injury; fourteenth updated edition of the bibliographic database of liver injuries and related drugs]” (Gastroenterol Clin Biol, 2004)
